Several values for one entry are separate records, joined by “and”; a condition that tells them apart may be missing. Equal entries are not always repeated. Where two headings read alike, the source gives them in different places.
Columns and labels:
[1] = test system: patients with major depressive episode; settings: for change in depression score (HAM-D), FIG. 2: after 6 weeks
Description: In the present invention, experiments were conducted on patients other than the patient group of a prior report (reference 6). The patient subjects who participated in the experiments of the present invention were all […] and were enrolled in the Clinical Trials Program of the Samsung Medical Center Geropsychiatry and Affective Disorder Clinics (Seoul Korea). The affective disorder section of the Samsung Psychiatric Evaluation Schedule (SPES) uses the Korean version of the Structured Clinical Interview for DSM-IV Axis-I disorders (SCID-IV; 4th edition, reference 17).
In the present invention, at least one family member who is living with the patient was interviewed to supplement the patient's report of symptoms, behaviors, level of functioning, duration of episode, and recent treatments. The patient subjects who participated in the experiments of the present invention all fulfilled DSM-IV criteria for major depressive episode, the Korean version of the Structured Clinical Interview for DSM-IV Axis-I disorders (4th edition). Diagnoses were confirmed by a board certified psychiatrist on the basis of the SPES, case review notes, and other relevant data. A minimum baseline 17-item Hamilton depression scale (HAM-D) score of 15 was required.
Patient subjects, who received other psychotropic medications within 2 weeks of the study or fluoxetine within 4 weeks, were excluded. In the present invention, potential subjects were excluded for pregnancy, significant medical conditions, abnormal laboratory baseline values, unstable psychiatric features (e.g., suicidality), history of alcohol or drug dependence, seizures, head trauma with loss of consciousness, neurologic illness, or concomitant Axis I psychiatric disorder. The protocol was approved by the ethics review board of Samsung Medical Center, Seoul, Korea. Signed informed consent was obtained from all participants.
Dose titration was completed within 2 weeks.
Remission was defined as a HAM-D of less than 8 at 6 weeks (reference 19).
In the present invention, 208 patients (86% of the original participants) completed the six-week treatment trial. Sixteen patients receiving NRI treatment and 17 patients receiving SSRI treatment dropped out. […] Ten patients were excluded, either because their plasma drug concentrations were undetectable, consistent with noncompliance (N=6) or were in the range consistent with extensive drug metabolism (<200 ng/ml norfluoxetine-fluoxetine and <30 ng/ml sertraline, N=4) (reference 20). […] These 33 dropouts were excluded in data analyses.
Genomic DNA was extracted from whole blood using a Wizard Genomic Purification kit (Promega, Madison, Wis., USA). The present inventors analyzed the genotype of the 5-HTT promoter s/l polymorphism (5-HTTLPR), the genotype of the 5-HTT intron 2 s/l polymorphism, and the NET G1287A polymorphism in exon 9. For this purpose, the G1287A polymorphism in exon 9 was amplified by PCR with primers of SEQ ID NO: 1 and SEQ ID NO: 2 and digested by restriction enzyme Sau96I.

[2] = plasma drug levels by HPLC-MS/MS, trough samples at end of week 4

SMILES	Response rate ([1]; 5-HTT promoter (5-HTTLPR) ss genotype, 6 weeks, listed as NRI)	Response rate ([1]; NET A carrier + 5-HTT promoter l carrier, any intron 2 genotype)	Response rate ([1]; NET A carrier + 5-HTT promoter ss, any intron 2 genotype)	Response rate ([1]; NET G1287A AA genotype, 6 weeks)	Response rate ([1]; NET G1287A GA genotype, 6 weeks)	Response rate ([1]; NET G1287A GA+AA genotypes (A allele carriers), 6 weeks)	Response rate ([1]; NET G1287A GA+AA genotypes (A allele carriers), 6 weeks, listed as NRI)	change in depression score (HAM-D), FIG. 2 ([1]; NET G1287A GA+AA genotypes)	change in depression score (HAM-D), FIG. 2 ([1]; NET G1287A GG genotype)	Rate of remission (HAM-D of less than 8 at 6 weeks) ([1]; all patients who completed the 6-week trial)	Response rate (50% or greater decrease in HAM-D score at 6 weeks) ([1]; all patients who completed the 6-week trial, listed as NRI)	expected treatment success rate when prescribed on NET G1287A examination ([1]; patient having the GG genotype)	Plasma levels (mean ±SD) ([2]; non-responders)	Plasma levels (mean ±SD) ([2]; responders)
CNCCC=C1c2ccccc2CCc2ccccc21 [nortriptyline]	76% and 38/50(76.0) %	22%	63%	4/6(66.7) %	16/41(39.0) %	43%	42.6%	0.11	0.14	29%	62% and 55/89 (61.8) %	83.35%	123 ± 23 ng/mL	116 ± 21 ng/mL
CN[C@H]1CC[C@@H](c2ccc(Cl)c(Cl)c2)c2ccccc21 [sertraline]	–	–	–	–	–	–	–	–	–	–	–	–	72 ± 28 ng/mL	75 ± 29 ng/mL
